Laboratory results from publication PMC5329948, “Caspase vinyl sulfone small molecule inhibitors prevent axonal degeneration in human neurons and reverse cognitive impairment in Caspase-6-overexpressing mice” (Molecular Neurodegeneration, 2017).

Test system: Casp6-overexpressing KI/Cre mice
Test: Novel object recognition task in Casp6-overexpressing KI/Cre mice
Format: in vivo, mouse
Conditions: 20 mg/kg i.p.
Description: Casp6 transgenic mouse model: All animal procedures followed the Canadian Council on Animal Care guidelines and were approved by the McGill Animal care committees. Sixteen to 20 month old C57BL/6 J mice were bred and aged in the pathogen-free Goodman Cancer Research Centre Mouse Transgenic Facility at McGill University. Mice were housed in a temperature-controlled room at 22 °C and were kept on a 12 h light/dark cycle. Food and water were available at libitum. Casp6 overexpressing mice (KI/Cre) express Casp6p20p10 under the CAG promoter (CMV immediate early enchancer/chicken β-actin promoter fusion) in the CA1 pyramidal cell layer of the hippocampus under the control of calmodulin kinase IIa (CAMKIIa)-regulated Cre expression.
Only males were used and littermates from each genotype (wild type (WT)/WT, WT/Cre, & knock-in (KI/)Cre) were tested together. The experimenter was blind to genotype and treatment groups. Mice were administered 20 mg/kg NWL-117 or physiological saline (0.9% NaCl) by intraperitoneal injections two times 48 h apart. […] Blood brain barrier permeability of NWL-117 caspase inhibitor: Briefly, 18–22 month old Casp6 mice were anesthetised with isoflurane, warmed with a heating blanket, and their physiological vitals (heart rate, body temperature, and respiration) monitored. The skin over the mouse’s neck was shaved, xylocaine applied, and an incision was made along the midline. Under a surgical microscope, the right carotid artery was gently separated from surrounding tissue. Two suture threads were placed at the proximal and distal ends of the carotid, and a small incision was made along the carotid wall. A micro-catheter (attached to a 1 ml syringe controlled by a micropump) was inserted and pushed to the entrance of the internal carotid artery. The catheter was secured in place using suture thread. […] The number of times touching each object was manually recorded, while the total distance, percent time moving, and number of entries into virtual cells were recorded using the HVS 2100 automated video tracking system (HVS Image, Buckingham, UK). […]

## CCC(C)[C@H](NC(=O)[C@H](CCC(=O)O)NC(=O)[C@@H](NC(=O)OCc1ccccc1)C(C)C)C(=O)N[C@H](/C=C/S(C)(=O)=O)CC(=O)O (stereo partly drawn) [NWL-117]
Two injections
  locomotor or exploratory activities: no effect
Two injections 48 h apart
  NOR performance in KI/Cre mice: regained normal NOR performance
Two injections 48 h apart, WT/WT and WT/Cre
  NOR performance in control mice: performed equally to saline-treated mice
